# Patent US20240058464A1 (Fortis Therapeutics, Inc., priority 2021, published 2024)
# Columns and labels:
# CD46 expression [1] = experiment: CD46 expression by RNA-sequencing in paired tumor biopsies before and after therapy; settings: paired biopsies; for CD46 expression, Post-Treatment Biopsy / CD46 expression, Pre-Treatment Biopsy: RNA-seq log2-transformed counts;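 for all read-outs here: FFPE human tumor biopsies, exome-capture RNA-seq, reads aligned to GRCh37, counts normalized for GC content, length and depth, summed per gene, log2-transformed, samples paired before versus after therapy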
# Description: Gene expression was determined by RNA-sequencing from formalin-fixed, paraffin-embedded (FFPE) tumor samples using an exome capture-based protocol. Briefly, total nucleic acid was extracted from FFPE solid tumor samples. The RNA sample was treated with DNAse and reverse transcribed. cDNA was captured with a custom probe set targeting the human exome. A library was prepared from the captured cDNA and sequenced on the Illumina platform. Sequence read were aligned to GRCh37 using Kallisto and normalized to quantify gene expression. Specifically, transcript counts were corrected for GC content and length using quantile normalization and adjusted for sequencing depth via a size factor method. Normalized counts in protein coding transcripts covered by the exome panel were then summed to obtain gene-level counts. Subsequent expression analyses were performed on log2-transformed counts.
# CD46 expression [2] = experiment: CD46 expression by RNA-sequencing in unpaired pre-treatment and post-treatment tumor biopsies; assay type: in vivo, human; settings: for CD46 expression Post: post-treatment biopsies
# [3] = Breast Cancer, Post minus Pre, unpaired biopsies, log2-transformed counts
# [4] = Breast Cancer, post- vs pre-treatment unpaired biopsies
# [5] = Breast Cancer, unpaired, RNA-seq log2-transformed normalized counts
# [6] = Non-Small Cell Lung Cancer, Post minus Pre, unpaired biopsies, log2-transformed counts
# [7] = Non-Small Cell Lung Cancer, post- vs pre-treatment unpaired biopsies
# [8] = Non-Small Cell Lung Cancer, unpaired, RNA-seq log2-transformed normalized counts
# [9] = Ovarian Cancer, Post minus Pre, unpaired biopsies, log2-transformed counts
# [10] = Ovarian Cancer, post- vs pre-treatment unpaired biopsies
# [11] = Ovarian Cancer, unpaired, RNA-seq log2-transformed normalized counts
# [12] = Sarcoma, Post minus Pre, unpaired biopsies, log2-transformed counts
# [13] = Sarcoma, post- vs pre-treatment unpaired biopsies
# [14] = Sarcoma, unpaired, RNA-seq log2-transformed normalized counts
compound,measurement,setting,value
N.N.[Cl][Pt][Cl] [cisplatin],CD46 expression diff (post minus pre),CD46 expression [1]; Biliary Cancer,0.15
same,Percent Change in CD46 expression,CD46 expression [1]; Biliary Cancer,2.6%
same,"CD46 expression, Post-Treatment Biopsy",CD46 expression [1]; Biliary Cancer,5.97
same,"CD46 expression, Pre-Treatment Biopsy",CD46 expression [1]; Biliary Cancer,5.82
same,CD46 expression diff (post minus pre),CD46 expression [1]; Bladder Cancer,0.10
same,Percent Change in CD46 expression,CD46 expression [1]; Bladder Cancer,1.6%
same,"CD46 expression, Pre-Treatment Biopsy",CD46 expression [1]; Bladder Cancer,6.15
same,CD46 expression diff (post minus pre),CD46 expression [1]; Non-Small Cell Lung Cancer,−0.45
same,Percent Change in CD46 expression,CD46 expression [1]; Non-Small Cell Lung Cancer,−7.2%
same,"CD46 expression, Post-Treatment Biopsy",CD46 expression [1]; Non-Small Cell Lung Cancer,5.85
same,CD46 expression diff,"CD46 expression [2]; Biliary Cancer, Post minus Pre, unpaired biopsies, log2-transformed counts",−0.06
same,CD46 expression Percentage change,"CD46 expression [2]; Biliary Cancer, post- vs pre-treatment unpaired biopsies",−1.0%
same,CD46 expression Post,"CD46 expression [2]; Biliary Cancer, unpaired, RNA-seq log2-transformed normalized counts",5.76
same,CD46 expression diff,"CD46 expression [2]; Bladder Cancer, post minus pre, unpaired biopsies",−0.19
same,CD46 expression Percentage change,"CD46 expression [2]; Bladder Cancer, post vs pre, unpaired biopsies",−3.1%
same,CD46 expression Post,"CD46 expression [2]; Bladder Cancer, log2-transformed RNA-seq counts",6.00
same,CD46 expression Pre,"CD46 expression [2]; Bladder Cancer, pre-treatment biopsies, log2-transformed RNA-seq counts",6.19
same,CD46 expression diff,CD46 expression [2]; [3],0.02
same,CD46 expression Percentage change,CD46 expression [2]; [4],0.3%
same,CD46 expression Post,CD46 expression [2]; [5],5.98
same,CD46 expression diff,"CD46 expression [2]; Endometrial Cancer, Post minus Pre, unpaired biopsies, log2-transformed counts",0.26
same,CD46 expression Percentage change,"CD46 expression [2]; Endometrial Cancer, post- vs pre-treatment unpaired biopsies",4.6%
same,CD46 expression Post,"CD46 expression [2]; Endometrial Cancer, unpaired, RNA-seq log2-transformed normalized counts",5.99
same,CD46 expression diff,"CD46 expression [2]; Head and Neck Squamous Cell Carcinoma, Post minus Pre, unpaired biopsies, log2-transformed counts",0.13
same,CD46 expression Percentage change,"CD46 expression [2]; Head and Neck Squamous Cell Carcinoma, post- vs pre-treatment unpaired biopsies",2.4%
same,CD46 expression Post,"CD46 expression [2]; Head and Neck Squamous Cell Carcinoma, unpaired, RNA-seq log2-transformed normalized counts",5.69
same,CD46 expression diff,CD46 expression [2]; [6],−0.05
same,CD46 expression Percentage change,CD46 expression [2]; [7],−0.8%
same,CD46 expression Post,CD46 expression [2]; [8],6.11
same,CD46 expression diff,CD46 expression [2]; [9],0.03
same,CD46 expression Percentage change,CD46 expression [2]; [10],0.6%
same,CD46 expression Post,CD46 expression [2]; [11],5.79
same,CD46 expression diff,"CD46 expression [2]; Pancreatic Cancer, Post minus Pre, unpaired biopsies, log2-transformed counts",0.18
same,CD46 expression Percentage change,"CD46 expression [2]; Pancreatic Cancer, post- vs pre-treatment unpaired biopsies",3.1%
same,CD46 expression Post,"CD46 expression [2]; Pancreatic Cancer, unpaired, RNA-seq log2-transformed normalized counts",6.16
same,CD46 expression diff,CD46 expression [2]; [12],0.19
same,CD46 expression Percentage change,CD46 expression [2]; [13],3.9%
same,CD46 expression Post,CD46 expression [2]; [14],5.02
same,CD46 expression after treatment vs pre-treatment,"CD46 expression [2]; head and neck squamous cell carcinoma, unpaired biopsies, FIG. 7",significantly higher
O=P1(N(CCCl)CCCl)NCCCO1 (centres unmarked) [cyclophosphamide],CD46 expression diff (post minus pre),CD46 expression [1]; Breast Cancer,0.01
same,Percent Change in CD46 expression,CD46 expression [1]; Breast Cancer,0.2%
same,"CD46 expression, Post-Treatment Biopsy",CD46 expression [1]; Breast Cancer,6.22
same,CD46 expression diff,CD46 expression [2]; [3],−0.03
same,CD46 expression Percentage change,CD46 expression [2]; [4],−0.4%
same,CD46 expression Post,CD46 expression [2]; [5],6.08
same,CD46 expression diff,CD46 expression [2]; [9],0.11
same,CD46 expression Percentage change,CD46 expression [2]; [10],1.9%
same,CD46 expression Post,CD46 expression [2]; [11],5.76
same,CD46 expression diff,CD46 expression [2]; [12],0.06
same,CD46 expression Percentage change,CD46 expression [2]; [13],1.2%
same,CD46 expression Post,CD46 expression [2]; [14],5.12
C[C@@H]1C[C@H]2[C@@H]3CCC4=CC(=O)C=C[C@]4(C)[C@@]3(F)[C@@H](O)C[C@]2(C)[C@@]1(O)C(=O)CO [dexamethasone],CD46 expression diff (post minus pre),CD46 expression [1]; Colorectal Cancer,−0.19
same,Percent Change in CD46 expression,CD46 expression [1]; Colorectal Cancer,−3.0%
same,"CD46 expression, Post-Treatment Biopsy",CD46 expression [1]; Colorectal Cancer,5.96
same,CD46 expression diff,CD46 expression [2]; [3],−0.07
same,CD46 expression Percentage change,CD46 expression [2]; [4],−1.1%
same,CD46 expression Post,CD46 expression [2]; [5],6.20
same,CD46 expression diff,"CD46 expression [2]; Colorectal Cancer, Post minus Pre, unpaired biopsies, log2-transformed counts",0.06
same,CD46 expression Percentage change,"CD46 expression [2]; Colorectal Cancer, post- vs pre-treatment unpaired biopsies",1.0%
same,CD46 expression Post,"CD46 expression [2]; Colorectal Cancer, unpaired, RNA-seq log2-transformed normalized counts",6.44
same,CD46 expression diff,CD46 expression [2]; [6],0.00
same,CD46 expression Percentage change,CD46 expression [2]; [7],0.0%
same,CD46 expression Post,CD46 expression [2]; [8],6.14
same,CD46 expression diff,"CD46 expression [2]; Ovarian Cancer, post minus pre, unpaired biopsies",−0.22
same,CD46 expression Percentage change,"CD46 expression [2]; Ovarian Cancer, post vs pre, unpaired biopsies",−3.9%
same,CD46 expression Post,"CD46 expression [2]; Ovarian Cancer, log2-transformed RNA-seq counts",5.48
same,CD46 expression diff,"CD46 expression [2]; Pancreatic Cancer, post minus pre, unpaired biopsies",−0.27
same,CD46 expression Percentage change,"CD46 expression [2]; Pancreatic Cancer, post vs pre, unpaired biopsies",−4.5%
same,CD46 expression Post,"CD46 expression [2]; Pancreatic Cancer, log2-transformed RNA-seq counts",5.75
CC(=O)O[C@@]12CO[C@@H]1C[C@H](O)[C@@]1(C)C(=O)[C@H](O)C3=C(C)[C@@H](OC(=O)[C@H](O)[C@@H](NC(=O)OC(C)(C)C)c4ccccc4)C[C@@](O)([C@@H](OC(=O)c4ccccc4)[C@H]21)C3(C)C [docetaxel],CD46 expression diff (post minus pre),CD46 expression [1]; Breast Cancer,0.22
same,Percent Change in CD46 expression,CD46 expression [1]; Breast Cancer,3.7%
same,"CD46 expression, Post-Treatment Biopsy",CD46 expression [1]; Breast Cancer,6.19
same,CD46 expression diff (post minus pre),CD46 expression [1]; Prostate Cancer,−0.03
same,Percent Change in CD46 expression,CD46 expression [1]; Prostate Cancer,−0.4%
same,"CD46 expression, Post-Treatment Biopsy",CD46 expression [1]; Prostate Cancer,5.76
same,CD46 expression diff,CD46 expression [2]; [3],0.04
same,CD46 expression Percentage change,CD46 expression [2]; [4],0.7%
same,CD46 expression Post,CD46 expression [2]; [5],6.23
same,CD46 expression diff,"CD46 expression [2]; Gastric Cancer, post minus pre, unpaired biopsies",−0.17
same,CD46 expression Percentage change,"CD46 expression [2]; Gastric Cancer, post vs pre, unpaired biopsies",−3.0%
same,CD46 expression Post,"CD46 expression [2]; Gastric Cancer, log2-transformed RNA-seq counts",5.59
same,CD46 expression diff,CD46 expression [2]; [6],0.02
same,CD46 expression Percentage change,CD46 expression [2]; [7],0.3%
same,CD46 expression diff,CD46 expression [2]; [9],0.12
same,CD46 expression Percentage change,CD46 expression [2]; [10],2.1%
same,CD46 expression Post,CD46 expression [2]; [11],5.88
same,CD46 expression diff,"CD46 expression [2]; Prostate Cancer, Post minus Pre, unpaired biopsies, log2-transformed counts",−0.14
same,CD46 expression Percentage change,"CD46 expression [2]; Prostate Cancer, post- vs pre-treatment unpaired biopsies",−2.2%
same,CD46 expression Post,"CD46 expression [2]; Prostate Cancer, unpaired, RNA-seq log2-transformed normalized counts",6.02
same,CD46 expression diff,"CD46 expression [2]; Sarcoma, post minus pre, unpaired biopsies",−0.14
same,CD46 expression Percentage change,"CD46 expression [2]; Sarcoma, post vs pre, unpaired biopsies",−2.8%
same,CD46 expression Post,"CD46 expression [2]; Sarcoma, log2-transformed RNA-seq counts",5.00
